# Measurements reported in US20260062443A1 (ALEXION PHARMACEUTICALS, INC., priority 2022, published 2026).
# Target: T1, Human complement C1s enzyme (Homo sapiens, UniProt P09871)
# T1 sequence (P09871 438-688 limits assumed): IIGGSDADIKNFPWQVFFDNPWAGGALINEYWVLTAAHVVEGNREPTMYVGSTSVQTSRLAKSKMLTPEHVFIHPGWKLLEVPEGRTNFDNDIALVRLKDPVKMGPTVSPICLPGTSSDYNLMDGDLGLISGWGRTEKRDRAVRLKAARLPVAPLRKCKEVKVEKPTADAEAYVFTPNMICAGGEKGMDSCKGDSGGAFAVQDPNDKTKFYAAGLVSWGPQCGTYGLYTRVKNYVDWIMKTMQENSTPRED
# T1 sequence (P09871 16-437 partner limits assumed): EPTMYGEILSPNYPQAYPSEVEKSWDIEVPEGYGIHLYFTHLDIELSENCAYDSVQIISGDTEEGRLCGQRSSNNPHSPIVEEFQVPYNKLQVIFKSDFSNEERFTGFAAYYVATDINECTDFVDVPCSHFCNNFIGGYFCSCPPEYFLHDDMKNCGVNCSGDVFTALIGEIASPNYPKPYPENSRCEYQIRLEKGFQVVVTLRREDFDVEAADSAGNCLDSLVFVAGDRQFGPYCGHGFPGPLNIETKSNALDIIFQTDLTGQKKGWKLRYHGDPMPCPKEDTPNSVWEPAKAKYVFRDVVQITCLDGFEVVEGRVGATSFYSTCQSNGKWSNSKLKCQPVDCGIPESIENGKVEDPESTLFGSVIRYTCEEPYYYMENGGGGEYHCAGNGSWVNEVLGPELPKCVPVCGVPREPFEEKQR
# Assay: Human C1s enzyme assay
# Format: biochemical
# Settings: human complement C1s enzyme 1.16 nM, substrate Z-L-Lys-SBzl 100 μM, 5 min preincubation; read-out: IC50 (Stars), C1s Inhibiting Activity
# Method: Other standard complement assays are also available.
# Human complement C1s enzyme (purified from human serum, Complement Technology, Inc.) at 1.16 nM final concentration was incubated with test compound at various concentrations for 5 min at room temperature in 50 mM Tris, 1 M NaCl, pH 7.5. A synthetic substrate Z-L-Lys-SBzl and DTNB (Ellman's reagent) were added to final concentrations of 100 μM each. Absorbance at 405 nm (A405) was recorded at 30 second intervals for 30 min using a microplate spectrophotometer. IC50 values were calculated by nonlinear regression of complement C1 s reaction rates as a function of test compound concentration.
# ND indicates a compound for which the IC50 value is not determined.
row,Structure (SMILES),IC50 [nM]
1,"COC[C@@H]1C[C@@H](C(=O)NCc2cc3cnccc3[nH]2)N(C(=O)CNC(=O)c2cccc(Oc3ccc(C)cc3F)c2)C1 (relative stereo) [Compound 318, (2S,4R*)-N-((1H-pyrrolo[3,2-c]pyridin-2-yl)methyl)-1-((3-(2-fluoro-4-methylphenoxy)benzoyl)glycyl)-4-(methoxymethyl)pyrrolidine-2-carboxamide]",< 100
2,"CC(NC(=O)[C@@H]1CC2(CN1C(=O)CNC(=O)c1ccc3c(c1)Oc1ccccc1S3)OCCO2)c1cc2cnccc2[nH]1 (stereo in doubt) [Compound 102, (S)-N-((S)-1-(1H-pyrrolo[3,2-c]pyridin-2-yl)ethyl)-7-((phenoxathiine-3-carbonyl)glycyl)-1,4-dioxa-7-azaspiro[4.4]nonane-8-carboxamide]",< 100
3,"C[C@@]12C[C@@H]1N(C(=O)CNC(=O)c1ccc(Oc3ccccc3)cc1)[C@H](C(=O)NCc1cc3c(s1)C(N)=NCC3)C2 [Compound 1, (1S,3S,5S)-N-((7-amino-4,5-dihydrothieno[2,3-c]pyridin-2-yl)methyl)-5-methyl-2-((4-phenoxybenzoyl)glycyl)-2-azabicyclo[3.1.0]hexane-3-carboxamide]",> 1000
4,"O=C(NCC(=O)N1CC2(C[C@H]1C(=O)NCc1cc3cnccc3[nH]1)OCCO2)c1ccc2c(c1)-c1ccccc1C2(F)F [Compound 2, (S)-N-((1H-pyrrolo[3,2-c]pyridin-2-yl)methyl)-7-((9,9-difluoro-9H-fluorene-3-carbonyl)glycyl)-1,4-dioxa-7-azaspiro[4.4]nonane-8-carboxamide]",< 100
5,"O=C(NCC(=O)N1CC2(C[C@H]1C(=O)NCc1cc3ccccc3[nH]1)OCCO2)c1ccc2c(c1)-c1ccccc1C2(F)F [Compound 3, (S)-N-((1H-indol-2-yl)methyl)-7-((9,9-difluoro-9H-fluorene-3-carbonyl)glycyl)-1,4-dioxa-7-azaspiro[4.4]nonane-8-carboxamide]",> 1000
6,"O=C(NCC(=O)N1CC2(C[C@H]1C(=O)NCc1cc3cnccc3[nH]1)OCCO2)c1ccc2c(c1)Oc1ccccc1S2 [Compound 4, (S)-N-((1H-pyrrolo[3,2-c]pyridin-2-yl)methyl)-7-((phenoxathiine-3-carbonyl)glycyl)-1,4-dioxa-7-azaspiro[4.4]nonane-8-carboxamide]",< 100
7,"COC[C@@]1(F)C[C@@H](C(=O)NCc2cc3cnccc3[nH]2)N(C(=O)CNC(=O)c2ccc3c(c2)-c2ccccc2C3(F)F)C1 [Compound 5, (2S,4R)-N-((1H-pyrrolo[3,2-c]pyridin-2-yl)methyl)-1-((9,9-difluoro-9H-fluorene-3-carbonyl)glycyl)-4-fluoro-4-(methoxymethyl)pyrrolidine-2-carboxamide]",< 100
8,"O=C(NCC(=O)N1C[C@@](F)(CF)C[C@H]1C(=O)NCc1cc2cnccc2[nH]1)c1ccc2c(c1)-c1ccccc1C2(F)F [Compound 6, (2S,4R)-N-((1H-pyrrolo[3,2-c]pyridin-2-yl)methyl)-1-((9,9-difluoro-9H-fluorene-3-carbonyl)glycyl)-4-fluoro-4-(fluoromethyl)pyrrolidine-2-carboxamide]",< 100
9,"CS(=O)(=O)[C@@H]1C[C@@H](C(=O)NCc2cc3cnccc3[nH]2)N(C(=O)CNC(=O)c2ccc3c(c2)-c2ccccc2C3(F)F)C1 [Compound 7, (2S,4R)-N-((1H-pyrrolo[3,2-c]pyridin-2-yl)methyl)-1-((9,9-difluoro-9H-fluorene-3-carbonyl)glycyl)-4-(methylsulfonyl)pyrrolidine-2-carboxamide]",< 100
10,"O=C(NCC(=O)N1C[C@H](OC(F)F)C[C@H]1C(=O)NCc1cc2cnccc2[nH]1)c1ccc2c(c1)-c1ccccc1C2(F)F [Compound 8, (2S,4R)-N-((1H-pyrrolo[3,2-c]pyridin-2-yl)methyl)-1-((9,9-difluoro-9H-fluorene-3-carbonyl)glycyl)-4-(difluoromethoxy)pyrrolidine-2-carboxamide]",< 100
11,"O=C(NCC(=O)N1CC2(C[C@H]1C(=O)NCc1cc3ccncc3[nH]1)OCCO2)c1ccc2c(c1)-c1ccccc1C2(F)F [Compound 9, (S)-N-((1H-pyrrolo[2,3-c]pyridin-2-yl)methyl)-7-((9,9-difluoro-9H-fluorene-3-carbonyl)glycyl)-1,4-dioxa-7-azaspiro[4.4]nonane-8-carboxamide]",100 to 1000
12,"O=C(NCC(=O)N1CC2(C[C@H]1C(=O)NCc1cc3cccnc3[nH]1)OCCO2)c1ccc2c(c1)-c1ccccc1C2(F)F [Compound 10, (S)-N-((1H-pyrrolo[2,3-b]pyridin-2-yl)methyl)-7-((9,9-difluoro-9H-fluorene-3-carbonyl)glycyl)-1,4-dioxa-7-azaspiro[4.4]nonane-8-carboxamide]",> 1000
13,"O=C(NCC(=O)N1CC2(C[C@H]1C(=O)NCc1cc3ccccc3[nH]1)OCCO2)c1ccc(Oc2ccccc2)cc1 [Compound 11, (S)-N-((1H-indol-2-yl)methyl)-7-((4-phenoxybenzoyl)glycyl)-1,4-dioxa-7-azaspiro[4.4]nonane-8-carboxamide]",> 1000
14,"O=C(NCC(=O)N1CC2(C[C@H]1C(=O)NCc1ccn[nH]1)OCCO2)c1ccc(Oc2ccccc2)cc1 [Compound 12, (S)-N-((1H-pyrazol-5-yl)methyl)-7-((4-phenoxybenzoyl)glycyl)-1,4-dioxa-7-azaspiro[4.4]nonane-8-carboxamide]",> 1000
15,"C[C@@]12C[C@@H]1N(C(=O)CNC(=O)c1ccc(Oc3ccccc3)cc1)[C@H](C(=O)NCc1cccc(Cl)c1Cl)C2 [Compound 13, (1S,3S,5S)-N-(2,3-dichlorobenzyl)-5-methyl-2-((4-phenoxybenzoyl)glycyl)-2-azabicyclo[3.1.0]hexane-3-carboxamide]",> 1000
16,"O=C(NCC(=O)N1CC2(C[C@H]1C(=O)NCc1ccc[nH]1)OCCO2)c1ccc(Oc2ccccc2)cc1 [Compound 14, (S)-N-((1H-pyrrol-2-yl)methyl)-7-((4-phenoxybenzoyl)glycyl)-1,4-dioxa-7-azaspiro[4.4]nonane-8-carboxamide]",> 1000
17,"O=C(NCC(=O)N1CC2(C[C@H]1C(=O)NCc1ncc[nH]1)OCCO2)c1ccc(Oc2ccccc2)cc1 [Compound 15, (S)-N-((1H-imidazol-2-yl)methyl)-7-((4-phenoxybenzoyl)glycyl)-1,4-dioxa-7-azaspiro[4.4]nonane-8-carboxamide]",> 1000
18,"O=C(NCC(=O)N1CC2(C[C@H]1C(=O)NCc1cc3cncnc3[nH]1)OCCO2)c1ccc2c(c1)-c1ccccc1C2(F)F [Compound 16, (S)-N-((7H-pyrrolo[2,3-d]pyrimidin-6-yl)methyl)-7-((9,9-difluoro-9H-fluorene-3-carbonyl)glycyl)-1,4-dioxa-7-azaspiro[4.4]nonane-8-carboxamide]",> 1000
19,"O=C(NCC(=O)N1CC2(C[C@H]1C(=O)NCc1cc3cnccc3[nH]1)OCCO2)c1ccc(-c2ccccc2)cc1 [Compound 17, (S)-N-((1H-pyrrolo[3,2-c]pyridin-2-yl)methyl)-7-(([1,1′-biphenyl]-4-carbonyl)glycyl)-1,4-dioxa-7-azaspiro[4.4]nonane-8-carboxamide]",< 100
20,"O=C(NCC(=O)N1C[C@H](OC(F)F)C[C@H]1C(=O)NCc1cc2cnccc2[nH]1)c1ccc(Oc2ccccc2)cc1 [Compound 18, (2S,4R)-N-((1H-pyrrolo[3,2-c]pyridin-2-yl)methyl)-4-(difluoromethoxy)-1-((4-phenoxybenzoyl)glycyl) pyrrolidine-2-carboxamide]",< 100
21,"O=C(NCC(=O)N1CC2(C[C@H]1C(=O)NCc1cc3cc(Cl)ccc3[nH]1)OCCO2)c1ccc2c(c1)Oc1ccccc1S2 [Compound 19, (S)-N-((5-chloro-1H-indol-2-yl)methyl)-7-((phenoxathiine-3-carbonyl)glycyl)-1,4-dioxa-7-azaspiro[4.4]nonane-8-carboxamide]",> 1000
22,"O=C(CCCOc1ccccc1)NCC(=O)N1CC2(C[C@H]1C(=O)NCc1cc3cnccc3[nH]1)OCCO2 [Compound 20, (S)-N-((1H-pyrrolo[3,2-c]pyridin-2-yl)methyl)-7-((4-phenoxybutanoyl)glycyl)-1,4-dioxa-7-azaspiro[4.4]nonane-8-carboxamide]",< 100
23,"COC[C@@]1(F)C[C@@H](C(=O)N[C@@H](C)c2cc3cnccc3[nH]2)N(C(=O)CNC(=O)c2ccc(Oc3ccccc3)cc2)C1 [Compound 21, (2S,4R)-N-((S)-1-(1H-pyrrolo[3,2-c]pyridin-2-yl)ethyl)-4-fluoro-4-(methoxymethyl)-1-((4-phenoxybenzoyl)glycyl)pyrrolidine-2-carboxamide]",> 1000
24,"C[C@H](NC(=O)[C@@H]1C[C@@H](OC(F)F)CN1C(=O)CNC(=O)c1ccc(Oc2ccccc2)cc1)c1cc2cnccc2[nH]1 [Compound 22, (2S,4R)-N-((S)-1-(1H-pyrrolo[3,2-c]pyridin-2-yl)ethyl)-4-(difluoromethoxy)-1-((4-phenoxybenzoyl)glycyl) pyrrolidine-2-carboxamide]",100 to 1000
